Measurements from US20160370379A1, “BLOOD-BASED BIOMARKER FOR CANCER” (J-PHARMA CO., LTD., priority 2014, published 2016).

Tests used:
[1] = tested on: pancreas cancer cell line T3M-4; experiment: Amino acid concentration in culture medium of pancreas cancer cell line with LAT1 inhibitor added; type: cell-based; conditions: T3M-4 culture, inhibitor added at each concentration, medium collected 0-97 hrs (FIG. 3b)
Protocol: (§1) Each of the cancer cell lines 44As3-11 (gastric cancer cell line), T3M-4 (pancreas cancer cell line), and MIAPaCa-2 (pancreas cancer cell line) was used. By using a 6 well plate, culture was performed at 37° C. with 5×10^4 cells in 3 mL (10% FBS, L-Glu+PS in RPMI1640). The culture medium was collected at 0, 24, 48, 72, and 97 hrs and centrifuged at 1,000 rpm. The supernatant (1.0 mL) was then stored in a deep freezer (−80° C.) during a period until determination. Eight kinds of amino acids (including phenylalanine in addition to the aforementioned histidine, isoleucine, leucine, methionine, tryptophan, valine, and tyrosine) were measured by mass analysis. Each culture was performed in triplet and, by measuring the sample, the concentration of each amino acid was represented as mean value±standard deviation, and then compared among the groups. Furthermore, after adding an anticancer agent (O-(5-amino-2-phenylbenzoxazol-7-yl)methyl-3,5-dichloro-L-tyrosine) at each concentration to the culture medium, the property of inhibiting the decrease in amino acid concentration in the culture medium was observed.
(§2) 3) As for the statistical processing, Mann-Whitney U test was used for comparison between two groups, and those having a risk ratio of 0.05 or less were determined to be a significant difference.

[2] = tested on: gastric cancer cell line 44As3-11; experiment: Amino acid concentration in culture medium of gastric cancer cell line with LAT1 inhibitor added; type: cell-based; conditions: 44As3-11 culture, inhibitor added at each concentration, medium collected 0-97 hrs (FIG. 2b)
Protocol: as §1, §2

[3] = target: T1, LAT1 (Homo sapiens, UniProt Q01650); experiment: Free amino acid concentration in blood serum of cancer patients at BSC stage administered inhibitor agent; type: in vivo
T1 construct: from tissue; host or cells: Solid tumours (pancreas, colon, gall bladder cancer with metastases) in living patients
Protocol: Immediately after collecting blood from patients having gastric cancer [100 samples, average age (lowest value-highest value) 66.1 (31 to 89 years old), sex ratio 72:28], pancreas cancer [27, 70.3 (56 to 81) 13:14], or bile duct cancer [6, 70.5 (68 to 75) 5:1] and healthy control with no cancer [12, 50.8 (29 to 73) 11:1], blood serum was isolated and stored in a deep freezer (−80° C.) during a period until determination. The concentration of seven types of amino acids (histidine, isoleucine, leucine, methionine, tryptophan, valine, and tyrosine) was measured by mass analysis, and the measurement result was compared to the value obtained from blood of a healthy control. The concentration of each amino acid was represented as relative value of each case, with the mean value from the healthy control being 100%. The percentage was compared between the cancer patient and healthy control.
A predetermined clinical test (test and experiment) was registered with an administration bureau, and after obtaining an approval of the institutional review board (IRB) of a site management organization, patients were selected and blood serum for analysis was collected, stored, and analyzed. The patient as a subject carried solid tumors for which standard treatments for cancer are ineffective or are intolerable, and they were in a state generally referred to as a BSC stage. […]

T1 sequence (Q01650 whole entry): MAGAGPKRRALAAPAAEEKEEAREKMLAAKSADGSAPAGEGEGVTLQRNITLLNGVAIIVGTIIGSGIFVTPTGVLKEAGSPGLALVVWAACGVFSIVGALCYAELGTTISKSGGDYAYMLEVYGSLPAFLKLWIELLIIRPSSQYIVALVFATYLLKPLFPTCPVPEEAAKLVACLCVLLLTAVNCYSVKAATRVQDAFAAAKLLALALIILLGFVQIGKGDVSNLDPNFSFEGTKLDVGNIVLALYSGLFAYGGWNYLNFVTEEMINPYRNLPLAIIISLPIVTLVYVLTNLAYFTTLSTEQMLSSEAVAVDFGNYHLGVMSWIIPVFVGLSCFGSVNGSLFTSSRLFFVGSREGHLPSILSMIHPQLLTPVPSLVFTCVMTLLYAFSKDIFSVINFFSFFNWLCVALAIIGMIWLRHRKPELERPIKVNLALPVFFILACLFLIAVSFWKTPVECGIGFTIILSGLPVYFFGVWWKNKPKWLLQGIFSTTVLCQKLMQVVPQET
T1 sequence (P08195 102-630 partner): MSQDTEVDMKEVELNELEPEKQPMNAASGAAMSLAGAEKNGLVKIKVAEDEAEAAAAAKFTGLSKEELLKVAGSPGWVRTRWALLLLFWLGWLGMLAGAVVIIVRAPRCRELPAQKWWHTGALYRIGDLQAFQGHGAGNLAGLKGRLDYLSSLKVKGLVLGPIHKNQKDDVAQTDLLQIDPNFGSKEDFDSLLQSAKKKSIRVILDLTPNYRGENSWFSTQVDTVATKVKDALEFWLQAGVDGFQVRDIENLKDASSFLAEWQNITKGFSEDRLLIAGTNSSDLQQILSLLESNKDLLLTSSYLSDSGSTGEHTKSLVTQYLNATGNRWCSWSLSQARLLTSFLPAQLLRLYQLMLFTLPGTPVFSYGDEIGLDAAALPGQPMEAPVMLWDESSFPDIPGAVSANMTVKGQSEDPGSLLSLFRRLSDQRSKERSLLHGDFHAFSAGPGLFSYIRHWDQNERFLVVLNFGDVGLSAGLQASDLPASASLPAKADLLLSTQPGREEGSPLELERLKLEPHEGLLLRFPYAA

Structure (SMILES): Nc1cc(COc2c(Cl)cc(C[C@H](N)C(=O)O)cc2Cl)c2oc(-c3ccccc3)nc2c1 [LAT1 inhibitor, O-(5-amino-2-phenylbenzoxazol-7-yl)methyl-3,5-dichloro-L-tyrosine]
- inhibition of the decrease in concentration of eight amino acids in the culture medium [1]: property of inhibiting amino acid decrease in a pharmaceutical concentration dependent manner was shown
- inhibition of the decrease in concentration of eight amino acids in the culture medium [2]: property of inhibiting amino acid decrease in a pharmaceutical concentration dependent manner was shown
- concentration of each amino acid in blood serum after single administration versus before administration ([3]; patients at BSC stage, 12 mg/m^2/day, 25.5 hours after start of single administration (FIGS. 4a, 4b)): higher than the value before the administration
- relative blood concentration of eight amino acids before versus after single administration ([3]; subjects 102 and 104, healthy control mean = 100, Student's t test (FIG. 4c)): significant difference between cases before and after the single administration
